Measurements as given in EP4722207A1, “OXOISOINDOLINYL-SUBSTITUTED TETRAHYDROPYRIMIDINEDIONE DERIVATIVE AND USE THEREOF” (Gluetacs Therapeutics (Shanghai) Co., Ltd., priority 2023, dated 2024).

Key:
CK1α = molecular target: T1, CK1α (Homo sapiens, UniProt P48729+Q96SW2); experiment: Western-blot assay, substrate protein degradation in hPBMCs: CK1α; format: cell-based; conditions: for CK1α substrate protein remaining %: compounds at 50 nM and 500 nM, 24 hours; for substrate protein remaining % CK1α: 24 hours of compound treatment, 50 nM and 500 nM
T1 construct: effects of the compounds of the present disclosure on the expression of target proteins in cells; endogenous in cells; host or cells: human PBMCs (hPBMCs)

IKZF2 = molecular target: T2, IKZF2 (Homo sapiens, UniProt Q96SW2+Q9UKS7); experiment: Western-blot assay, substrate protein degradation in hPBMCs: IKZF2; format: cell-based; conditions: for IKZF2 substrate protein remaining %: compounds at 50 nM and 500 nM, 24 hours; for substrate protein remaining % IKZF2: 24 hours of compound treatment, 50 nM and 500 nM
T2 construct: effects of the compounds of the present disclosure on the expression of target proteins in cells; endogenous in cells; host or cells: human PBMCs (hPBMCs)

GSPT1 = molecular target: T3, GSPT1 (Homo sapiens, UniProt P15170+Q96SW2); experiment: Western-blot assay, substrate protein degradation in hPBMCs: GSPT1; format: cell-based; conditions: for GSPT1 substrate protein remaining %: compounds at 50 nM and 500 nM, 24 hours; for substrate protein remaining % GSPT1: 24 hours of compound treatment, 50 nM and 500 nM
T3 construct: effects of the compounds of the present disclosure on the expression of target proteins in cells; endogenous in cells; host or cells: human PBMCs (hPBMCs)

WEE1 = molecular target: T4, WEE1 (Homo sapiens, UniProt P30291+Q96SW2); experiment: Western-blot assay, substrate protein degradation in hPBMCs: WEE1; format: cell-based; conditions: for WEE1 substrate protein remaining %: compounds at 50 nM and 500 nM, 24 hours; for substrate protein remaining % WEE1: 24 hours of compound treatment, 50 nM and 500 nM
T4 construct: effects of the compounds of the present disclosure on the expression of target proteins in cells; endogenous in cells; host or cells: human PBMCs (hPBMCs)

MV-4-11 = experiment: Cell viability assay (CellTiter-Meiluncell Luminescent), tumor cell proliferation, MV-4-11; conditions: Homo sapiens, MV4-11, 96 h; for IC50: read-out: inhibitory activity (IC50, nM) against tumor cells proliferation, MV-4-11; for inhibition at 0.01 µM: read-out: Inhibition Rate at 10 nM (%); for inhibition at 0.5 µM: read-out: Inhibition Rate at 500 nM (%)
Procedure: The tumor cells used herein were cultured in a cell culture medium listed in table 2 at 37°C in an incubator with 5% CO2. Prior to experimentation, all cell lines used were correctly identified by STR profiling, and tested negative for mycoplasma contamination using a mycoplasma detection kit through routine screenings.
On the following day, the test compounds of the present disclosure were subjected to serial dilution. […] Subsequently, 0.5 µL of the test compound dilution was transferred into the 96-well plate containing the cells, with each well containing 100 µL of cell culture medium. […] Into the 96-well plate, the diluted test compounds and corresponding detection reagents were added, resulting in final test compound concentrations of 500 nM and 10 nM, respectively. The experimental procedure is described below using the diluted 2 µM test compound as an example.
After the cells were treated with the compounds of the present disclosure for a specified period, the cell viability assay reagent was added to the culture medium according to the kit's instructions to determine cell viability. […] All controls were treated using the same procedure as the compounds of the present disclosure. The growth inhibition curves for the compounds of the present disclosure were plotted using Prism GraphPad software, and the IC50 values were calculated therefrom.

IKZF1 = molecular target: T5, IKZF1 (Homo sapiens, UniProt Q13422+Q96SW2); experiment: Western-blot assay, substrate protein degradation in hPBMCs: IKZF1; format: cell-based; conditions: for IKZF1 substrate protein remaining %: compounds at 50 nM and 500 nM, 24 hours; for substrate protein remaining % IKZF1: 24 hours of compound treatment, 50 nM and 500 nM
T5 construct: effects of the compounds of the present disclosure on the expression of target proteins in cells; endogenous in cells; host or cells: human PBMCs (hPBMCs)

IKZF3 = molecular target: T6, IKZF3 (Homo sapiens, UniProt Q96SW2+Q9UKT9); experiment: Western-blot assay, substrate protein degradation in hPBMCs: IKZF3; format: cell-based; conditions: for IKZF3 substrate protein remaining %: compounds at 50 nM and 500 nM, 24 hours; for substrate protein remaining % IKZF3: 24 hours of compound treatment, 50 nM and 500 nM
T6 construct: effects of the compounds of the present disclosure on the expression of target proteins in cells; endogenous in cells; host or cells: human PBMCs (hPBMCs)

H292 = experiment: Cell viability assay (CellTiter-Meiluncell Luminescent), tumor cell proliferation, H292; conditions: Homo sapiens, NCI-H292, 96 h; for inhibition at 0.01 µM: read-out: Inhibition Rate at 10 nM (%); for inhibition at 0.5 µM: read-out: Inhibition Rate at 500 nM (%)

T4 sequence (P30291 whole entry): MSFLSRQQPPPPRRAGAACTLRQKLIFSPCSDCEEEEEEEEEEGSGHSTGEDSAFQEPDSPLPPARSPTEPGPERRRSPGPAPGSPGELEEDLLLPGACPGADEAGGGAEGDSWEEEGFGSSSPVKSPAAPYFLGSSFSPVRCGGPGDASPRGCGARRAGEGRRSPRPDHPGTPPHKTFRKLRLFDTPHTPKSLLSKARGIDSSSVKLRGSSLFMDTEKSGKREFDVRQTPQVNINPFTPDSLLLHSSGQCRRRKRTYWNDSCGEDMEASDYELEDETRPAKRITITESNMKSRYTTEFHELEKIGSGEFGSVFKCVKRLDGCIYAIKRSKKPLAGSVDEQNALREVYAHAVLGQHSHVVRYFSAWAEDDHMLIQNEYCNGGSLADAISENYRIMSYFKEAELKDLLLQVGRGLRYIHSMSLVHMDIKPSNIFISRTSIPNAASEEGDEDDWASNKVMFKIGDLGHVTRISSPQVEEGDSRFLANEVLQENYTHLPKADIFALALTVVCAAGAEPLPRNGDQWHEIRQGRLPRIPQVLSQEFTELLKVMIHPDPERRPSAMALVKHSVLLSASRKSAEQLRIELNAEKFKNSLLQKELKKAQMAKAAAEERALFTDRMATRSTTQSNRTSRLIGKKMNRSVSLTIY
T4 sequence (Q96SW2 whole entry): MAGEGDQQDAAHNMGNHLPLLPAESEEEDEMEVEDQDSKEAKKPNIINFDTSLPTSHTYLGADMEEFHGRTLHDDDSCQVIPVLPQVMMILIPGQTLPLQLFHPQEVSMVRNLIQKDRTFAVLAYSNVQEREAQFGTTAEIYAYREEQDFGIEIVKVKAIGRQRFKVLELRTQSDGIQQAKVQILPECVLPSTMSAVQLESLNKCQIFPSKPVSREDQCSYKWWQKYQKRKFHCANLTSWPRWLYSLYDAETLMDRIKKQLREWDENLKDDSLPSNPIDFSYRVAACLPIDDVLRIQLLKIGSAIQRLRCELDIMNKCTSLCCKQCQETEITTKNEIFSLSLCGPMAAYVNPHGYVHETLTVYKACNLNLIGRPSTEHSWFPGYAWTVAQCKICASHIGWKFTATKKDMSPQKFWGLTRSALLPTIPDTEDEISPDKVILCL
T4 sequence (Q16531 whole entry partner): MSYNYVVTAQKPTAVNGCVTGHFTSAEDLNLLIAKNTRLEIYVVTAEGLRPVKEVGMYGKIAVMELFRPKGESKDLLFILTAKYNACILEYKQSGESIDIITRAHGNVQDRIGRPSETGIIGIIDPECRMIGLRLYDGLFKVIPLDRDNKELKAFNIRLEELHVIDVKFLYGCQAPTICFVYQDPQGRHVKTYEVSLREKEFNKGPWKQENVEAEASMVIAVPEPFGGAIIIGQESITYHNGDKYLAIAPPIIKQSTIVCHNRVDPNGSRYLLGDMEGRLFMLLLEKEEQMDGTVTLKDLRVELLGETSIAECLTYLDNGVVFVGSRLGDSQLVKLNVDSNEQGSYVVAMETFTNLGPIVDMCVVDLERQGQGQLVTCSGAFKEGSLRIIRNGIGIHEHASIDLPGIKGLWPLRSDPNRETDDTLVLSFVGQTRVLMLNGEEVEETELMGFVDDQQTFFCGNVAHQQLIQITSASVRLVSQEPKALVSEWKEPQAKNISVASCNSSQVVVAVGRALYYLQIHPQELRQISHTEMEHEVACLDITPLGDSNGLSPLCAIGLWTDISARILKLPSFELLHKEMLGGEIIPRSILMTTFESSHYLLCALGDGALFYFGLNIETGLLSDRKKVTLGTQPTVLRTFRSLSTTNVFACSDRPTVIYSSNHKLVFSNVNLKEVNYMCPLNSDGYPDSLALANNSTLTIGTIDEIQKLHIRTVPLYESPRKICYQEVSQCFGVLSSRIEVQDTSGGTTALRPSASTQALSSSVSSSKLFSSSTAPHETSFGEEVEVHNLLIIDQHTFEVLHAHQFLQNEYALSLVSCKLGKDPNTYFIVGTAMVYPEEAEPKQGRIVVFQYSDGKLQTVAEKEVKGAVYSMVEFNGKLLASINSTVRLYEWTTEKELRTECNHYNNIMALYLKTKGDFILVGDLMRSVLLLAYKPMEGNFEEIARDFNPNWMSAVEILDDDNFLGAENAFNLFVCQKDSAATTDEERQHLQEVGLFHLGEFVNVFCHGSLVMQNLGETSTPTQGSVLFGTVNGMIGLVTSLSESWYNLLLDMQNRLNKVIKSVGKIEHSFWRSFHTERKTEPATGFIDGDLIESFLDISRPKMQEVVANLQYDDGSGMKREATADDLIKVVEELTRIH
T3 sequence (P15170 whole entry): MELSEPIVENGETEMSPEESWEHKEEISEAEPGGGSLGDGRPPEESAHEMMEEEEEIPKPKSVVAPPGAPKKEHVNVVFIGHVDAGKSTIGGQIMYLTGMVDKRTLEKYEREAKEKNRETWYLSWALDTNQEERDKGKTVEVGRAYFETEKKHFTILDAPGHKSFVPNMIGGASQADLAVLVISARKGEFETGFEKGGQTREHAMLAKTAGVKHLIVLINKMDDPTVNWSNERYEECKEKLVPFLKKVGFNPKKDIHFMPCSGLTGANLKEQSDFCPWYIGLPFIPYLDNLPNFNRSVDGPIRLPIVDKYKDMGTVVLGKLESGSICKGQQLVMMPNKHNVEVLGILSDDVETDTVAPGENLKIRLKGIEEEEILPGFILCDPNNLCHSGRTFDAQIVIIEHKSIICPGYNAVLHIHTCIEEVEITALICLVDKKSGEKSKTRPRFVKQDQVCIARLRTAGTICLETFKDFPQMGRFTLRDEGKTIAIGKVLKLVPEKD
T3 sequence (Q96SW2 whole entry): as the sequence (Q96SW2 whole entry) above
T3 sequence (Q16531 whole entry partner): as the sequence (Q16531 whole entry partner) above
T5 sequence (Q13422 whole entry): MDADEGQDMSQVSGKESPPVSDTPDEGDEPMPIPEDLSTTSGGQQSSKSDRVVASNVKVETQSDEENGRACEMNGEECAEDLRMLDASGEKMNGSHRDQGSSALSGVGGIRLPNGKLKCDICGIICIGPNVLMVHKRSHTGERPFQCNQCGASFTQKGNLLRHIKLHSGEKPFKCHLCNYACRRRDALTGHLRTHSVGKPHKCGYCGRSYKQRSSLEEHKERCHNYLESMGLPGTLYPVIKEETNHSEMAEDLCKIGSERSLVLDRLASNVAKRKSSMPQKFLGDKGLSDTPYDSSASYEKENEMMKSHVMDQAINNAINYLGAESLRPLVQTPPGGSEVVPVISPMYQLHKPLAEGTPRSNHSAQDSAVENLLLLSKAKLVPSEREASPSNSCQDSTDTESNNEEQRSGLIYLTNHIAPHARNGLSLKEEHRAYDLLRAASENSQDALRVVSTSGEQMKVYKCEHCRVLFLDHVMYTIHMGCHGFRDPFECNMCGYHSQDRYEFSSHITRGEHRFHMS
T5 sequence (Q96SW2 whole entry): as the sequence (Q96SW2 whole entry) above
T5 sequence (Q16531 whole entry partner): as the sequence (Q16531 whole entry partner) above
T2 sequence (Q9UKS7 whole entry): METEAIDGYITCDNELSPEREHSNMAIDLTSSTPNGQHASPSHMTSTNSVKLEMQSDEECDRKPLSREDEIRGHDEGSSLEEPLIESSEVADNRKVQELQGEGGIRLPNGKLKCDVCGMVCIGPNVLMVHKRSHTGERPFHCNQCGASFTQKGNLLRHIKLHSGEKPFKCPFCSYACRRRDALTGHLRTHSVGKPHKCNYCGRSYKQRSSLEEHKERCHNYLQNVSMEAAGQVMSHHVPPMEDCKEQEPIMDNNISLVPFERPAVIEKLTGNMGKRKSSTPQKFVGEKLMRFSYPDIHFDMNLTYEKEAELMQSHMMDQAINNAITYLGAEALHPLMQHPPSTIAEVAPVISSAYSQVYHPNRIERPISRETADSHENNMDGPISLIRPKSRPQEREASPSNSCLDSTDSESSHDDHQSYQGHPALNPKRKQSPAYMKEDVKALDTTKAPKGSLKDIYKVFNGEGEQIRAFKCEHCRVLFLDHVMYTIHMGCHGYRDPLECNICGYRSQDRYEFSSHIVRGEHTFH
T2 sequence (Q96SW2 whole entry): as the sequence (Q96SW2 whole entry) above
T2 sequence (Q16531 whole entry partner): as the sequence (Q16531 whole entry partner) above
T6 sequence (Q9UKT9 whole entry): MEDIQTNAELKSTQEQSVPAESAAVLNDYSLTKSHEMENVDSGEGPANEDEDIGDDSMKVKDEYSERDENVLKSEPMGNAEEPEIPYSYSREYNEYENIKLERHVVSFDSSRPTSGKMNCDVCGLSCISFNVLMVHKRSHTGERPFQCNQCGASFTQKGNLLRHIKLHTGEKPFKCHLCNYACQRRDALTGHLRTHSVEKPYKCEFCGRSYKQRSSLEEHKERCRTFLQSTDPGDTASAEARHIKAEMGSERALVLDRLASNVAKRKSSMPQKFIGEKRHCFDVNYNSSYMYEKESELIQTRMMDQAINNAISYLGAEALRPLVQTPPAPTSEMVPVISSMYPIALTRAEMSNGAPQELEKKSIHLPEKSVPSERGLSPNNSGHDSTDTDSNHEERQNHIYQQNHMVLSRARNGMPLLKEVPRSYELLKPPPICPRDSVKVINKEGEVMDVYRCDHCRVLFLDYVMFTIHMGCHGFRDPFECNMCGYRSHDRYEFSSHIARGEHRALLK
T6 sequence (Q96SW2 whole entry): as the sequence (Q96SW2 whole entry) above
T6 sequence (Q16531 whole entry partner): as the sequence (Q16531 whole entry partner) above

SMILES	CK1α substrate protein remaining % (CK1α)	IKZF2 substrate protein remaining % (IKZF2)	GSPT1 substrate protein remaining % (GSPT1)	WEE1 substrate protein remaining % (WEE1)	IC50 (MV-4-11) [nM]	IKZF1 substrate protein remaining % (IKZF1)	IKZF3 substrate protein remaining % (IKZF3)	inhibition at 0.01 µM (MV-4-11) [%]	inhibition at 0.5 µM (MV-4-11) [%]	substrate protein remaining % CK1α (CK1α)	substrate protein remaining % IKZF2 (IKZF2)	substrate protein remaining % GSPT1 (GSPT1)	inhibition at 0.01 µM (H292) [%]	inhibition at 0.5 µM (H292) [%]	substrate protein remaining % WEE1 (WEE1)	substrate protein remaining % IKZF1 (IKZF1)	substrate protein remaining % IKZF3 (IKZF3)
O=C1CCN(N2Cc3cc(CN4CCN(c5ccccc5)CC4)ccc3C2=O)C(=O)N1 [GT-06696, 1-(1-oxo-5-((4-phenylpiperazin-1-yl)methyl)isoindolin-2-yl)dihydropyrimidine-2,4(1H,3H)-dione]	B ("B" is defined as 80%< substrate protein remaining %≤ 100%)	B ("B" is defined as 80%< substrate protein remaining %≤ 100%)	A ("A" is defined as 0% ≤ substrate protein remaining % ≤ 80%)	B ("B" is defined as 80%< substrate protein remaining %≤ 100%)	100 to 300	B ("B" is defined as 80%< substrate protein remaining %≤ 100%)	B ("B" is defined as 80%< substrate protein remaining %≤ 100%)										
O=C1CCN(N2Cc3cc(CN4CCN(c5cccc(Br)c5)CC4)ccc3C2=O)C(=O)N1 [GT-06698, 1-(5-((4-(3-bromophenyl)piperazin-1-yl)methyl)-1-oxoisoindolin-2-yl)dihydropyrimidine-2,4(1H,3H)-dione]	B ("B" is defined as 80%< substrate protein remaining %≤ 100%)	B ("B" is defined as 80%< substrate protein remaining %≤ 100%)	A ("A" is defined as 0% ≤ substrate protein remaining % ≤ 80%)	B ("B" is defined as 80%< substrate protein remaining %≤ 100%)	100 to 300	B ("B" is defined as 80%< substrate protein remaining %≤ 100%)	B ("B" is defined as 80%< substrate protein remaining %≤ 100%)										
COc1cccc(N2CCN(Cc3ccc4c(c3)CN(N3CCC(=O)NC3=O)C4=O)CC2)c1 [GT-06699, 1-(5-((4-(3-methoxyphenyl)piperazin-1-yl)methyl)-1-oxoisoindolin-2-yl)dihydropyrimidine-2,4(1H,3H)-dione]	B ("B" is defined as 80%< substrate protein remaining %≤ 100%)	B ("B" is defined as 80%< substrate protein remaining %≤ 100%)	A ("A" is defined as 0% ≤ substrate protein remaining % ≤ 80%)	B ("B" is defined as 80%< substrate protein remaining %≤ 100%)	100 to 300	B ("B" is defined as 80%< substrate protein remaining %≤ 100%)	B ("B" is defined as 80%< substrate protein remaining %≤ 100%)										
O=C1CCN(N2Cc3cc(CN4CCN(c5ccc(C(F)(F)F)cc5)CC4)ccc3C2=O)C(=O)N1 [GT-06700, 1-(1-oxo-5-((4-(4-(trifluoromethyl)phenyl)piperazin-1-yl)methyl)isoindolin-2-yl)dihydropyrimidine-2,4(1H,3H)-dione]					50 to 100												
CC1(C)CCC(CN2C3CCC2CN(Cc2ccc4c(c2)C(=O)N(N2CCC(=O)NC2=O)C4=O)C3)=C(c2ccc(Cl)cc2)C1 [GT-07887, 5-((8-((4'-chloro-5,5-dimethyl-3,4,5,6-tetrahydro-[1,1'-biphenyl]-2-yl)methyl)-3,8-diazabicyclo[3.2.1]octan-3-yl)methyl)-2-(2,4-dioxotetrahydropyrimidin-1(2H)-yl)isoindoline-1,3-dione]								25 to 30	30 to 40								
Cc1nc(N2CCN(Cc3ccc4c(c3)C(=O)N(N3CCC(=O)NC3=O)C4=O)CC2)c2c3c(sc2n1)CCCC3 [GT-08101, 2-(2,4-dioxotetrahydropyrimidin-1(2H)-yl)-5-((4-(2-methyl-5,6,7,8-tetrahydrobenzo[4,5]thieno[2,3-d]pyrimidin-4-yl)piperazin-1-yl)methyl)isoindoline-1,3-dione]								18 to 25	25 to 30								
O=C1CCN(N2C(=O)c3ccc(CN4CCN(c5nc(Cl)nc6c5SCC6)CC4)cc3C2=O)C(=O)N1 [GT-08448, 5-((4-(2-chloro-6,7-dihydrothieno[3,2-d]pyrimidin-4-yl)piperazin-1-yl)methyl)-2-(2,4-dioxotetrahydropyrimidin-1(2H)-yl)isoindoline-1,3-dione]										B (80%< substrate protein remaining %≤ 100%)	B (80%< substrate protein remaining %≤ 100%)	A (0% ≤ substrate protein remaining % ≤ 80%)	20 to 40	20 to 40	B (80%< substrate protein remaining %≤ 100%)	B (80%< substrate protein remaining %≤ 100%)	B (80%< substrate protein remaining %≤ 100%)
O=C1CCN(N2C(=O)c3ccc(CN4CCN(c5nc6c(c(N7CCOCC7)n5)SCC6)CC4)cc3C2=O)C(=O)N1 [GT-08451, 2-(2,4-dioxotetrahydropyrimidin-1(2H)-yl)-5-((4-(4-morpholino-6,7-dihydrothieno[3,2-d]pyrimidin-2-yl)piperazin-1-yl)methyl)isoindoline-1,3-dione]										A (0% ≤ substrate protein remaining % ≤ 80%)	B (80%< substrate protein remaining %≤ 100%)	B (80%< substrate protein remaining %≤ 100%)	15 to 20	20 to 40	B (80%< substrate protein remaining %≤ 100%)	B (80%< substrate protein remaining %≤ 100%)	A (0% ≤ substrate protein remaining % ≤ 80%)
O=C1CCN(N2C(=O)c3ccc(CN4CCN(c5ncnc6ccsc56)CC4)cc3C2=O)C(=O)N1 [GT-08452, 2-(2,4-dioxotetrahydropyrimidin-1(2H)-yl)-5-((4-(thieno[3,2-d]pyrimidin-4-yl)piperazin-1-yl)methyl)isoindoline-1,3-dione]										A (0% ≤ substrate protein remaining % ≤ 80%)	B (80%< substrate protein remaining %≤ 100%)	B (80%< substrate protein remaining %≤ 100%)	20 to 40	5 to 10	A (0% ≤ substrate protein remaining % ≤ 80%)	A (0% ≤ substrate protein remaining % ≤ 80%)	A (0% ≤ substrate protein remaining % ≤ 80%)
O=C1CCN(N2C(=O)c3ccc(CN4CCN(c5nc(Cl)nc6ccsc56)CC4)cc3C2=O)C(=O)N1 [GT-08453, 5-((4-(2-chlorothieno[3,2-d]pyrimidin-4-yl)piperazin-1-yl)methyl)-2-(2,4-dioxotetrahydropyrimidin-1(2H)-yl)isoindoline-1,3-dione]										A (0% ≤ substrate protein remaining % ≤ 80%)	B (80%< substrate protein remaining %≤ 100%)	A (0% ≤ substrate protein remaining % ≤ 80%)	20 to 40	10 to 15	B (80%< substrate protein remaining %≤ 100%)	A (0% ≤ substrate protein remaining % ≤ 80%)	A (0% ≤ substrate protein remaining % ≤ 80%)
O=C1CCN(N2C(=O)c3ccc(CN4CCN(c5nc(N6CCOCC6)nc6ccsc56)CC4)cc3C2=O)C(=O)N1 [GT-08455, 2-(2,4-dioxotetrahydropyrimidin-1(2H)-yl)-5-((4-(2-morpholinothieno[3,2-d]pyrimidin-4-yl)piperazin-1-yl)methyl)isoindoline-1,3-dione]										A (0% ≤ substrate protein remaining % ≤ 80%)	B (80%< substrate protein remaining %≤ 100%)	A (0% ≤ substrate protein remaining % ≤ 80%)	5 to 10	15 to 20	B (80%< substrate protein remaining %≤ 100%)	B (80%< substrate protein remaining %≤ 100%)	A (0% ≤ substrate protein remaining % ≤ 80%)
